According to PubChem BioAssay (NCI):
Several values for one entry are separate records, joined by “and”; a condition that tells them apart may be missing. Equal values may be shown once.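 Cells were grown in 96-well plates and exposed to each compound for 48 hours at five concentrations; endpoints were interpolated linearly between bracketing concentrations, or set to the highest concentration if not reached. GI50 marks 50% less growth. TGI denotes the concentration required for complete inhibition of growth.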

Key:
Experiment in all cases: NCI anticancer screen, dose series, 48 h
[1] = tested on: NCI-H23 lung
[2] = tested on: SN12C renal
[3] = tested on: SK-OV-3 ovarian
[4] = tested on: LOX IMVI melanoma
[5] = tested on: NCI/ADR-RES ovarian
[6] = tested on: CAKI-1 renal
[7] = tested on: RXF 393 renal
[8] = tested on: HCC-2998 colon
[9] = tested on: SK-MEL-5 melanoma
[10] = tested on: CCRF-CEM leukemia
[11] = tested on: SR leukemia
[12] = tested on: MDA-MB-231 breast
[13] = tested on: ACHN renal
[14] = tested on: HS 578T breast
[15] = tested on: UACC-62 melanoma
[16] = tested on: EKVX NSCLC
[17] = tested on: UACC-257 melanoma
[18] = tested on: MOLT-4 leukemia
[19] = tested on: SW-620 colon
[20] = tested on: M14 melanoma
[21] = tested on: COLO 205 colon
[22] = tested on: OVCAR-3 ovarian
[23] = tested on: TK-10 renal
[24] = tested on: OVCAR-4 ovarian
[25] = tested on: SK-MEL-2 melanoma
[26] = tested on: HOP-92 NSCLC
[27] = tested on: IGROV1 ovarian
[28] = tested on: A498 renal
[29] = tested on: RPMI-8226 leukemia
[30] = tested on: KM12 colon
[31] = tested on: DU-145 prostate
[32] = tested on: HCT-116 colon
[33] = tested on: HL-60(TB) leukemia
[34] = tested on: BT-549 breast
[35] = tested on: OVCAR-5 ovarian
[36] = tested on: T-47D breast
[37] = tested on: NCI-H226 lung
[38] = tested on: K-562 leukemia
[39] = tested on: MDA-MB-435
[40] = tested on: A549 NSCLC
[41] = tested on: HCT-15 colon
[42] = tested on: MALME-3M melanoma
[43] = tested on: 786-0 renal
[44] = tested on: NCI-H460 lung
[45] = tested on: UO-31 renal
[46] = tested on: HOP-62 NSCLC
[47] = tested on: PC-3 prostate
[48] = tested on: NCI-H522 lung
[49] = tested on: SK-MEL-28 melanoma
[50] = tested on: OVCAR-8 ovarian
[51] = tested on: HT29 colon
[52] = tested on: MCF7 breast

In the case of CN1CCN(CCC=C2c3ccccc3Sc3ccc(S(=O)(=O)N(C)C)cc32)CC1, the GI50 [1] is reported as 12.2 µM and 15.7 µM, the TGI [1] is reported as 71 µM and 52.7 µM and the GI50 [2] is reported as 6.23 µM and 13.8 µM. The TGI [2] was 34.6 µM and > 49.3 µM, the GI50 [3] was 9.22 µM and 13.6 µM and the TGI [3] was 24.7 µM and 30.7 µM. For the same molecule, the GI50 [4] was 1.7 µM and 2.79 µM, the TGI [4] was 3.7 µM and 8.66 µM and the GI50 [5] was 5.5 µM and 13.2 µM. The TGI [5] was 26.5 µM and 37.5 µM, the GI50 [6] was 3.45 µM and 5.41 µM and the TGI [6] was 20.6 µM and 23.9 µM. For the same molecule, the GI50 [7] was 1.68 µM, the TGI [7] was 5.52 µM and the GI50 [8] was 1.55 µM and 2.57 µM. The TGI [8] was 3.21 µM and 6.84 µM, the GI50 [9] was 1.58 µM and the TGI [9] was 2.95 µM and 3.02 µM. For the same molecule, the GI50 [10] was 3.12 µM and 4.36 µM, the TGI [10] was 20.1 µM and 23 µM and the GI50 [11] was 2.19 µM. For the same molecule, the TGI [11] was 7.74 µM, the GI50 [12] was 1.82 µM and 4.4 µM and the TGI [12] was 4.43 µM and 16.8 µM. For the same molecule, the GI50 [13] was 5.27 µM and 10.2 µM, the TGI [13] was 27.3 µM and 27.6 µM and the GI50 [14] was 3.4 µM and 3 µM. The TGI [14] was 23.2 µM and 14.8 µM, the GI50 [15] was 1.66 µM and 1.76 µM and the TGI [15] was 3.21 µM and 3.48 µM. The GI50 [16] was 9.15 µM and 13.6 µM, the TGI [16] was > 100 µM and 63.5 µM and the GI50 [17] was 2.02 µM and 1.8 µM. The TGI [17] was 3.73 µM and 4.03 µM, the GI50 [18] was 2.91 µM and 2.22 µM and the TGI [18] was 7.95 µM and 7.1 µM. For the same molecule, the GI50 [19] was 3.58 µM and 2.85 µM, the TGI [19] was 19.9 µM and 8.62 µM and the GI50 [20] was 1.97 µM and 2.1 µM. For the same molecule, the TGI [20] was 3.63 µM and 4.57 µM, the GI50 [21] was 1.44 µM and 1.66 µM and the TGI [21] was 2.82 µM and 3.7 µM. The GI50 [22] was 3.84 µM and 6.44 µM, the TGI [22] was 16.3 µM and 22.7 µM and the GI50 [23] was 2.22 µM and 7.92 µM. The TGI [23] was 5.05 µM and 23.8 µM, the GI50 [24] was 9.5 µM and 12.8 µM and the TGI [24] was > 100 µM and 58.9 µM. The GI50 [25] was 2.37 µM and 2.48 µM, the TGI [25] was 4.32 µM and 6.09 µM and the GI50 [26] was 0.516 µM and 2.84 µM. For the same molecule, the TGI [26] was 4.54 µM and 20.3 µM, the GI50 [27] was 5.13 µM and 8.26 µM and the TGI [27] was 23.3 µM and 25.7 µM. For the same molecule, the GI50 [28] was 2.19 µM and 3.51 µM, the TGI [28] was 13.2 µM and 17 µM and the GI50 [29] was 2.33 µM and 2.6 µM. For the same molecule, the TGI [29] was 6.55 µM and 8.62 µM, the GI50 [30] was 3.96 µM and 4.68 µM and the TGI [30] was 24.3 µM and 16.4 µM. The GI50 [31] was 13 µM and 12.6 µM, the TGI [31] was > 100 µM and 26.9 µM and the GI50 [32] was 3 µM and 3.35 µM. For the same molecule, the TGI [32] was > 100 µM and 23.8 µM, the GI50 [33] was 2.38 µM and 2.41 µM and the TGI [33] was 4.65 µM. For the same molecule, the GI50 [34] was 8.06 µM and 13 µM, the TGI [34] was 23 µM and 29.2 µM and the GI50 [35] was 10.9 µM and 14.8 µM. The TGI [35] was 38.8 µM and 30 µM, the GI50 [36] was 1.52 µM and 3.85 µM and the TGI [36] was 3.42 µM and 16.7 µM. The GI50 [37] was 7.04 µM and 15.9 µM, the TGI [37] was 26.9 µM and 33.7 µM and the GI50 [38] was 2.21 µM and 1.63 µM. The TGI [38] was 4.72 µM, the GI50 [39] was 1.89 µM and 2.08 µM and the TGI [39] was 4.28 µM and 5.82 µM. For the same molecule, the GI50 [40] was 5.69 µM and 9.71 µM, the TGI [40] was > 100 µM and 31.5 µM and the GI50 [41] was 3.3 µM and 2.52 µM. For the same molecule, the TGI [41] was > 100 µM and 10.3 µM, the GI50 [42] was 1.73 µM and 2.54 µM and the TGI [42] was 3.5 µM and 9.72 µM. The GI50 [43] was 4.12 µM and 6.73 µM, the TGI [43] was 16.2 µM and 20.8 µM and the GI50 [44] was 3.51 µM and 3.47 µM. The TGI [44] was 14.8 µM and 14 µM, the GI50 [45] was 3.46 µM and 4.23 µM and the TGI [45] was 25.1 µM and 21.1 µM. The GI50 [46] was 5.73 µM and 14.6 µM, the TGI [46] was 23.3 µM and 33 µM and the GI50 [47] was 3.7 µM and 7.99 µM. For the same molecule, the TGI [47] was 32.5 µM and > 43.1 µM, the GI50 [48] was 1.87 µM and 8.15 µM and the TGI [48] was 3.83 µM and 28.1 µM. The GI50 [49] was 1.8 µM and 1.77 µM, the TGI [49] was 3.22 µM and 3.35 µM and the GI50 [50] was 5.85 µM and 15.2 µM. The TGI [50] was 24.6 µM and 36.4 µM, the GI50 [51] was 1.42 µM and 0.872 µM and the TGI [51] was 3.26 µM and 2.91 µM. The GI50 [52] was 1.91 µM and 2.81 µM and the TGI [52] was 4 µM and 14 µM.
